Active and inactive are the calls of the source.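 The calls were made as follows: active = compounds whose fitted half-maximal concentration for changing the GFP signal is at or below a set limit; inactive = the rest.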
Assay: TOR pathway RPL19A-GFP modulators, concentration series – cell-based, S. cerevisiae, flow cytometry, MLPCN hits, dose response (AID 2740);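 also: background is signal of the same compound in parental non-GFP s288c yeast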
Conditions: S. cerevisiae RPL19A-GFP strain, flow cytometry fluorescence, 3 h; at 33 µM (top of the series)

## COc1cc(NC(=O)c2cccc(C)c2)ccc1NC(=O)c1cc2ccccc2o1
  GFP fluorescence, lower = active (kMESF (background-subtracted)): 39.6 (inactive)

## CCc1nc2ccccc2c(=O)n1NC(=O)c1c(O)c2cccc3c2n(c1=O)CCC3
  GFP fluorescence, lower = active (kMESF (background-subtracted)): 25.5 (inactive)

## O=C(c1ccc([N+](=O)[O-])o1)N1CCN(c2nc3c(F)cc(F)cc3s2)CC1
  GFP fluorescence, lower = active (kMESF (background-subtracted)): 31.7 (inactive)

## Cc1ccc(C(=O)Oc2oc(-c3ccccc3)nc2C=Nc2ccc(N(C)C)cc2)cc1
  GFP fluorescence, lower = active (kMESF (background-subtracted)): 38.8 (inactive)

## COc1ccc(N2C(=O)C(Cl)=C(Nc3c(C)n(C)n(-c4ccccc4)c3=O)C2=O)cc1
  GFP fluorescence, lower = active (kMESF (background-subtracted)): 39.8 (inactive)

## Nc1ccccc1C#CC(=O)c1ccccc1
  GFP fluorescence, lower = active (kMESF (background-subtracted)): 21 (inactive)

## CC(C)(C)C1C/C(=C/c2ccccn2)C(=O)/C(=C/c2ccccn2)C1 (configuration not stated)
  GFP fluorescence, lower = active (kMESF (background-subtracted)): 41.4 (inactive)

## COc1ccc(N2C(=O)CC(Sc3ncn[nH]3)C2=O)c(OC)c1 (configuration not stated)
  GFP fluorescence, lower = active (kMESF (background-subtracted)): 42.2 (inactive)

## CC1(C)OC(c2ccccc2)=C/C(=C/C=C2C(=O)NC(=S)NC2=O)O1
  GFP fluorescence, lower = active (kMESF (background-subtracted)): 37 (inactive)

## N=C1/C(=C\c2coc3ccccc3c2=O)C(=O)N=C2SC(c3ccncc3)=NN12
  GFP fluorescence, lower = active (kMESF (background-subtracted)): 25.5 (inactive)

## O=C(NC(=S)Nc1ccc2oc(=O)ccc2c1)c1cccc(Cl)c1
  GFP fluorescence, lower = active (kMESF (background-subtracted)): 37.2 (inactive)

## COc1cc(/C=C2\C(=O)ON=C2c2ccccc2)cc(Br)c1O
  GFP fluorescence, lower = active (kMESF (background-subtracted)): 37.3 (inactive)

## O=C(COc1ccccc1)NNC(=S)NC(=O)c1ccccc1
  GFP fluorescence, lower = active (kMESF (background-subtracted)): 44.4 (inactive)

## Cc1ccc2[nH]cc(/C=C/c3cc[n+](C)cc3)c2c1
  GFP fluorescence, lower = active (kMESF (background-subtracted)): 38.4 (inactive)

## O=C1C=CC(=O)N1c1ccc(OC(F)F)cc1
  GFP fluorescence, lower = active (kMESF (background-subtracted)): 14.7 (inactive)

## O=C(Nc1nnc(-c2ccc3c(c2)CCCC3)o1)c1ccc(Cl)cc1Cl
  GFP fluorescence, lower = active (kMESF (background-subtracted)): 37.2 (inactive)

## O=C(NNC(=S)NC(=O)c1ccco1)c1ccc(F)cc1
  GFP fluorescence, lower = active (kMESF (background-subtracted)): 49.8 (inactive)

## COc1ccc(-c2cc(C(F)(F)F)nc(S(C)(=O)=O)n2)cc1
  GFP fluorescence, lower = active (kMESF (background-subtracted)): 44.7 (inactive)

## O=C1N(c2ccccc2C(F)(F)F)O[C@]1(c1ccccc1)C1CCCCC1
  GFP fluorescence, lower = active (kMESF (background-subtracted)): 36.4 (inactive)

## COc1cccc(/C=N/Nc2ccc([N+](=O)[O-])cn2)c1O
  GFP fluorescence, lower = active (kMESF (background-subtracted)): 42.1 (inactive)

## Cc1nc2ccc(NC(=O)c3oc4ccc(F)cc4c3C)cc2s1
  GFP fluorescence, lower = active (kMESF (background-subtracted)): 39 (inactive)

## Cc1[nH]n(-c2ccccc2)c(=O)c1C(c1ccccc1[N+](=O)[O-])C(C#N)C#N (configuration not stated)
  GFP fluorescence, lower = active (kMESF (background-subtracted)): 24.7 (inactive)

## C=CCOc1ccccc1C(=O)/C=C1/C(=O)Nc2ccccc21
  GFP fluorescence, lower = active (kMESF (background-subtracted)): 41.5 (inactive)

## O=C(NC(=S)NNC(=O)[C@H]1C[C@@H]1c1ccccc1)c1cccc(F)c1
  GFP fluorescence, lower = active (kMESF (background-subtracted)): 45.1 (inactive)

## CCN1/C(=C/c2ccc3cc(C)ccc3[n+]2CC)Sc2ccc3sccc3c21
  GFP fluorescence, lower = active (kMESF (background-subtracted)): 31.5 (inactive)

## COC(CNC(=O)c1ccc2c3c(onc13)-c1ccccc1C2=O)OC
  GFP fluorescence, lower = active (kMESF (background-subtracted)): 14.8 (inactive)

## O=c1c2cnn(-c3ccccc3)c2ncn1Cc1ccco1
  GFP fluorescence, lower = active (kMESF (background-subtracted)): 35.6 (inactive)

## COc1ccc(C(=O)/C=C2/C(=O)Nc3ccccc32)c(OC)c1
  GFP fluorescence, lower = active (kMESF (background-subtracted)): 37.3 (inactive)

## O=C(Oc1c(Cl)cc(Cl)c2cccnc12)c1ccco1
  GFP fluorescence, lower = active (kMESF (background-subtracted)): 34.9 (inactive)

## C[C@@]12C(=O)OC(=O)[C@]1(C)C1CCC2O1
  GFP fluorescence, lower = active (kMESF (background-subtracted)): 25.9 (inactive)

## CCCCCCCCCCCCCCCC[n+]1cccc2ccccc21
  GFP fluorescence, lower = active (kMESF (background-subtracted)): 1.36 (inactive)

## Oc1c(C(Nc2cccc(C(F)(F)F)c2)c2ccncc2)ccc2cccnc12 (configuration not stated)
  GFP fluorescence, lower = active (kMESF (background-subtracted)): 45.3 (inactive)
